# Source: ChEMBL document CHEMBL2331181, “Synthesis and in vitro cytotoxic activity evaluation of novel heterocycle bridged carbothioamide type isosteviol derivatives as antitumor agents” (Bioorg Med Chem Lett, 2013)
# System: Raji
# Assay: Cytotoxicity against human Raji cells after 48 hrs by MTT assay
# Assay type: functional, cell-based
# Conditions: not given
row,SMILES,IC50 [µM]
1,CCOC(=O)[C@]1(C)CCC[C@@]2(C)[C@@H]3CC[C@@]4(C)C[C@]3(CC[C@@H]21)[C@@H]1CON(C(=S)Nc2ccccc2F)[C@@H]14,32.7
2,CCOC(=O)[C@]1(C)CCC[C@@]2(C)[C@@H]3CC[C@@]4(C)C[C@]3(CC[C@@H]21)c1cn(C(=S)Nc2cccc(Cl)c2)nc14,16
3,CCOC(=O)[C@]1(C)CCC[C@@]2(C)[C@@H]3CC[C@@]4(C)C[C@]3(CC[C@@H]21)[C@@H]1CON(C(=S)Nc2ccc(F)cc2)[C@@H]14,> 50
4,CCOC(=O)[C@]1(C)CCC[C@@]2(C)[C@@H]3CC[C@@]4(C)C[C@]3(CC[C@@H]21)c1cn(C(=S)Nc2cccc(Br)c2)nc14,15.8
5,CCOC(=O)[C@]1(C)CCC[C@@]2(C)[C@@H]3CC[C@@]4(C)C[C@]3(CC[C@@H]21)[C@@H]1CON(C(=S)Nc2cccc(OC)c2)[C@@H]14,> 50
6,CCOC(=O)[C@]1(C)CCC[C@@]2(C)[C@@H]3CC[C@@]4(C)C[C@]3(CC[C@@H]21)c1cn(C(=S)Nc2ccccc2C)nc14,15.2
7,C[C@@]12CC[C@@H]3[C@@](CC[C@H]4[C@@]3(C)CCC[C@@]4(C)C(=O)O)(CC1=O)C2 [ISOSTEVIOL],> 50
8,CCOC(=O)[C@]1(C)CCC[C@@]2(C)[C@@H]3CC[C@@]4(C)C[C@]3(CC[C@@H]21)c1cn(C(=S)Nc2cccc(F)c2)nc14,23.7
9,CCOC(=O)[C@]1(C)CCC[C@@]2(C)[C@@H]3CC[C@@]4(C)C[C@]3(CC[C@@H]21)c1cn(C(=S)Nc2ccc(F)cc2)nc14,17.7
10,CCOC(=O)[C@]1(C)CCC[C@@]2(C)[C@@H]3CC[C@@]4(C)C[C@]3(CC[C@@H]21)[C@@H]1CON(C(=S)Nc2cccc(F)c2)[C@@H]14,36.4
11,CCOC(=O)[C@]1(C)CCC[C@@]2(C)[C@@H]3CC[C@@]4(C)C[C@]3(CC[C@@H]21)c1cn(C(=S)Nc2ccccc2F)nc14,11.1
12,CCOC(=O)[C@]1(C)CCC[C@@]2(C)[C@@H]3CC[C@@]4(C)C[C@]3(CC[C@@H]21)[C@@H]1CON(C(=S)Nc2ccccc2[N+](=O)[O-])[C@@H]14,35.4
13,CCOC(=O)[C@]1(C)CCC[C@@]2(C)[C@@H]3CC[C@@]4(C)C[C@]3(CC[C@@H]21)c1cn(C(=S)Nc2ccccc2Cl)nc14,21.1
14,CCOC(=O)[C@]1(C)CCC[C@@]2(C)[C@@H]3CC[C@@]4(C)C[C@]3(CC[C@@H]21)[C@@H]1CON(C(=S)Nc2cccc(Br)c2)[C@@H]14,> 50
15,CCOC(=O)[C@]1(C)CCC[C@@]2(C)[C@@H]3CC[C@@]4(C)C[C@]3(CC[C@@H]21)[C@@H]1CON(C(=S)Nc2ccccc2Cl)[C@@H]14,35.6

# System: HeLa
# Assay: Cytotoxicity against human HeLa cells after 48 hrs by MTT assay
# Assay type: functional, cell-based
# Conditions: not given
row,SMILES,IC50 [µM]
1,CCOC(=O)[C@]1(C)CCC[C@@]2(C)[C@@H]3CC[C@@]4(C)C[C@]3(CC[C@@H]21)[C@@H]1CON(C(=S)Nc2ccccc2F)[C@@H]14,> 50
2,CCOC(=O)[C@]1(C)CCC[C@@]2(C)[C@@H]3CC[C@@]4(C)C[C@]3(CC[C@@H]21)c1cn(C(=S)Nc2cccc(Cl)c2)nc14,> 50
3,CCOC(=O)[C@]1(C)CCC[C@@]2(C)[C@@H]3CC[C@@]4(C)C[C@]3(CC[C@@H]21)[C@@H]1CON(C(=S)Nc2ccc(F)cc2)[C@@H]14,> 50
4,CCOC(=O)[C@]1(C)CCC[C@@]2(C)[C@@H]3CC[C@@]4(C)C[C@]3(CC[C@@H]21)c1cn(C(=S)Nc2cccc(Br)c2)nc14,> 50
5,CCOC(=O)[C@]1(C)CCC[C@@]2(C)[C@@H]3CC[C@@]4(C)C[C@]3(CC[C@@H]21)[C@@H]1CON(C(=S)Nc2cccc(OC)c2)[C@@H]14,> 50
6,CCOC(=O)[C@]1(C)CCC[C@@]2(C)[C@@H]3CC[C@@]4(C)C[C@]3(CC[C@@H]21)c1cn(C(=S)Nc2ccccc2C)nc14,> 50
7,C[C@@]12CC[C@@H]3[C@@](CC[C@H]4[C@@]3(C)CCC[C@@]4(C)C(=O)O)(CC1=O)C2 [ISOSTEVIOL],> 50
8,CCOC(=O)[C@]1(C)CCC[C@@]2(C)[C@@H]3CC[C@@]4(C)C[C@]3(CC[C@@H]21)c1cn(C(=S)Nc2cccc(F)c2)nc14,> 50
9,CCOC(=O)[C@]1(C)CCC[C@@]2(C)[C@@H]3CC[C@@]4(C)C[C@]3(CC[C@@H]21)c1cn(C(=S)Nc2ccc(F)cc2)nc14,13.3
10,CCOC(=O)[C@]1(C)CCC[C@@]2(C)[C@@H]3CC[C@@]4(C)C[C@]3(CC[C@@H]21)[C@@H]1CON(C(=S)Nc2cccc(F)c2)[C@@H]14,> 50
11,CCOC(=O)[C@]1(C)CCC[C@@]2(C)[C@@H]3CC[C@@]4(C)C[C@]3(CC[C@@H]21)c1cn(C(=S)Nc2ccccc2F)nc14,47.5
12,CCOC(=O)[C@]1(C)CCC[C@@]2(C)[C@@H]3CC[C@@]4(C)C[C@]3(CC[C@@H]21)[C@@H]1CON(C(=S)Nc2ccccc2[N+](=O)[O-])[C@@H]14,> 50
13,CCOC(=O)[C@]1(C)CCC[C@@]2(C)[C@@H]3CC[C@@]4(C)C[C@]3(CC[C@@H]21)c1cn(C(=S)Nc2ccccc2Cl)nc14,> 50
14,CCOC(=O)[C@]1(C)CCC[C@@]2(C)[C@@H]3CC[C@@]4(C)C[C@]3(CC[C@@H]21)[C@@H]1CON(C(=S)Nc2cccc(Br)c2)[C@@H]14,> 50
15,CCOC(=O)[C@]1(C)CCC[C@@]2(C)[C@@H]3CC[C@@]4(C)C[C@]3(CC[C@@H]21)[C@@H]1CON(C(=S)Nc2ccccc2Cl)[C@@H]14,> 50

# System: A549
# Assay: Cytotoxicity against human A549 cells after 48 hrs by MTT assay
# Assay type: functional, cell-based
# Conditions: A549, 48 h
row,SMILES,IC50 [µM]
1,CCOC(=O)[C@]1(C)CCC[C@@]2(C)[C@@H]3CC[C@@]4(C)C[C@]3(CC[C@@H]21)[C@@H]1CON(C(=S)Nc2ccccc2F)[C@@H]14,> 50
2,CCOC(=O)[C@]1(C)CCC[C@@]2(C)[C@@H]3CC[C@@]4(C)C[C@]3(CC[C@@H]21)c1cn(C(=S)Nc2cccc(Cl)c2)nc14,39.1
3,CCOC(=O)[C@]1(C)CCC[C@@]2(C)[C@@H]3CC[C@@]4(C)C[C@]3(CC[C@@H]21)[C@@H]1CON(C(=S)Nc2ccc(F)cc2)[C@@H]14,> 50
4,CCOC(=O)[C@]1(C)CCC[C@@]2(C)[C@@H]3CC[C@@]4(C)C[C@]3(CC[C@@H]21)c1cn(C(=S)Nc2cccc(Br)c2)nc14,24.8
5,CCOC(=O)[C@]1(C)CCC[C@@]2(C)[C@@H]3CC[C@@]4(C)C[C@]3(CC[C@@H]21)[C@@H]1CON(C(=S)Nc2cccc(OC)c2)[C@@H]14,> 50
6,CCOC(=O)[C@]1(C)CCC[C@@]2(C)[C@@H]3CC[C@@]4(C)C[C@]3(CC[C@@H]21)c1cn(C(=S)Nc2ccccc2C)nc14,32.1
7,C[C@@]12CC[C@@H]3[C@@](CC[C@H]4[C@@]3(C)CCC[C@@]4(C)C(=O)O)(CC1=O)C2 [ISOSTEVIOL],> 50
8,CCOC(=O)[C@]1(C)CCC[C@@]2(C)[C@@H]3CC[C@@]4(C)C[C@]3(CC[C@@H]21)c1cn(C(=S)Nc2cccc(F)c2)nc14,33.8
9,CCOC(=O)[C@]1(C)CCC[C@@]2(C)[C@@H]3CC[C@@]4(C)C[C@]3(CC[C@@H]21)c1cn(C(=S)Nc2ccc(F)cc2)nc14,33.5
10,CCOC(=O)[C@]1(C)CCC[C@@]2(C)[C@@H]3CC[C@@]4(C)C[C@]3(CC[C@@H]21)[C@@H]1CON(C(=S)Nc2cccc(F)c2)[C@@H]14,> 50
11,CCOC(=O)[C@]1(C)CCC[C@@]2(C)[C@@H]3CC[C@@]4(C)C[C@]3(CC[C@@H]21)c1cn(C(=S)Nc2ccccc2F)nc14,18.8
12,CCOC(=O)[C@]1(C)CCC[C@@]2(C)[C@@H]3CC[C@@]4(C)C[C@]3(CC[C@@H]21)[C@@H]1CON(C(=S)Nc2ccccc2[N+](=O)[O-])[C@@H]14,> 50
13,CCOC(=O)[C@]1(C)CCC[C@@]2(C)[C@@H]3CC[C@@]4(C)C[C@]3(CC[C@@H]21)c1cn(C(=S)Nc2ccccc2Cl)nc14,26.6
14,CCOC(=O)[C@]1(C)CCC[C@@]2(C)[C@@H]3CC[C@@]4(C)C[C@]3(CC[C@@H]21)[C@@H]1CON(C(=S)Nc2cccc(Br)c2)[C@@H]14,> 50
15,CCOC(=O)[C@]1(C)CCC[C@@]2(C)[C@@H]3CC[C@@]4(C)C[C@]3(CC[C@@H]21)[C@@H]1CON(C(=S)Nc2ccccc2Cl)[C@@H]14,> 50

# System: SGC-7901
# Assay: Cytotoxicity against human SGC7901 cells after 48 hrs by MTT assay
# Assay type: functional, cell-based
# Conditions: SGC-7901, 48 h
row,SMILES,IC50 [µM]
1,CCOC(=O)[C@]1(C)CCC[C@@]2(C)[C@@H]3CC[C@@]4(C)C[C@]3(CC[C@@H]21)[C@@H]1CON(C(=S)Nc2ccccc2F)[C@@H]14,28.2
2,CCOC(=O)[C@]1(C)CCC[C@@]2(C)[C@@H]3CC[C@@]4(C)C[C@]3(CC[C@@H]21)c1cn(C(=S)Nc2cccc(Cl)c2)nc14,16.9
3,CCOC(=O)[C@]1(C)CCC[C@@]2(C)[C@@H]3CC[C@@]4(C)C[C@]3(CC[C@@H]21)[C@@H]1CON(C(=S)Nc2ccc(F)cc2)[C@@H]14,> 50
4,CCOC(=O)[C@]1(C)CCC[C@@]2(C)[C@@H]3CC[C@@]4(C)C[C@]3(CC[C@@H]21)c1cn(C(=S)Nc2cccc(Br)c2)nc14,19.6
5,CCOC(=O)[C@]1(C)CCC[C@@]2(C)[C@@H]3CC[C@@]4(C)C[C@]3(CC[C@@H]21)[C@@H]1CON(C(=S)Nc2cccc(OC)c2)[C@@H]14,> 50
6,CCOC(=O)[C@]1(C)CCC[C@@]2(C)[C@@H]3CC[C@@]4(C)C[C@]3(CC[C@@H]21)c1cn(C(=S)Nc2ccccc2C)nc14,38.1
7,C[C@@]12CC[C@@H]3[C@@](CC[C@H]4[C@@]3(C)CCC[C@@]4(C)C(=O)O)(CC1=O)C2 [ISOSTEVIOL],> 50
8,CCOC(=O)[C@]1(C)CCC[C@@]2(C)[C@@H]3CC[C@@]4(C)C[C@]3(CC[C@@H]21)c1cn(C(=S)Nc2cccc(F)c2)nc14,19.5
9,CCOC(=O)[C@]1(C)CCC[C@@]2(C)[C@@H]3CC[C@@]4(C)C[C@]3(CC[C@@H]21)c1cn(C(=S)Nc2ccc(F)cc2)nc14,18.4
10,CCOC(=O)[C@]1(C)CCC[C@@]2(C)[C@@H]3CC[C@@]4(C)C[C@]3(CC[C@@H]21)[C@@H]1CON(C(=S)Nc2cccc(F)c2)[C@@H]14,> 50
11,CCOC(=O)[C@]1(C)CCC[C@@]2(C)[C@@H]3CC[C@@]4(C)C[C@]3(CC[C@@H]21)c1cn(C(=S)Nc2ccccc2F)nc14,20.7
12,CCOC(=O)[C@]1(C)CCC[C@@]2(C)[C@@H]3CC[C@@]4(C)C[C@]3(CC[C@@H]21)[C@@H]1CON(C(=S)Nc2ccccc2[N+](=O)[O-])[C@@H]14,> 50
13,CCOC(=O)[C@]1(C)CCC[C@@]2(C)[C@@H]3CC[C@@]4(C)C[C@]3(CC[C@@H]21)c1cn(C(=S)Nc2ccccc2Cl)nc14,26.2
14,CCOC(=O)[C@]1(C)CCC[C@@]2(C)[C@@H]3CC[C@@]4(C)C[C@]3(CC[C@@H]21)[C@@H]1CON(C(=S)Nc2cccc(Br)c2)[C@@H]14,36.4
15,CCOC(=O)[C@]1(C)CCC[C@@]2(C)[C@@H]3CC[C@@]4(C)C[C@]3(CC[C@@H]21)[C@@H]1CON(C(=S)Nc2ccccc2Cl)[C@@H]14,43.6
